Laboratory results from publication PMC8318231, “Rate-of-Kill (RoK) assays to triage large compound sets for Chagas disease drug discovery: Application to GSK Chagas Box” (PLoS Neglected Tropical Diseases, 2021).

Columns and labels:
[1] = tested on: T. cruzi intracellular amastigotes in H9c2 cells; assay: Rate-of-Kill (RoK) high-content imaging assay, amastigotes per cell (AM/CELL) and curve descriptors; format: cell-based, Trypanosoma cruzi; parameters: key to ME_24h / ME_48h / ME_72h: % reduction in parasite burden (cidal response); t50pct_MCC50 / t50pct_Cmax: unit not given here; conditions: for ME_24h: 24h; for ME_48h: 48h; for ME_72h: 72h; for t50%_Cmax / tlag_Cmax / t50pct_Cmax: at Cmax; for ME_24h (%): maximum effect at 24 h; for ME_24h (%) / ME_48h (%) / ME_72h (%): RoK assay; for ME_48h (%): maximum effect at 48 h; for ME_72h (%): maximum effect at 72 h; for ME 24h (maximum effect at 24 hours, intracellular amastigotes): maximum percentage of parasite burden reduction reached by any concentration
How it was run: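 H9c2 cardiomyocytes infected with T. cruzi trypomastigotes (MOI 8, 18 h), then compounds tested at 5 μM single shot or 11-point 1/3 dilution from 50 μM. DRAQ5-stained nuclei imaged over a time course. Amastigotes per cell normalised to infected cells at 4 h (0%) and non-infected cells (100%).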

[2] = tested on: T. cruzi Tulahuen trypomastigotes; assay: T. cruzi trypomastigote assay (Cell Titer-Glo viability, ATP luminescence); format: cell-based, Trypanosoma cruzi; conditions: for Trypomastigotes pIC50 48 hours: 48 hours incubation; for Trypomastigotes pIC50 48 hours / Trypomastigotes pIC50 72 hours: pIC50 = -log10 IC50 in molar units; for Trypomastigotes pIC50 72 hours: 72 hours incubation; for 72 pIC50 (trypomastigotes, raw data of Fig 1D): 72 hours, plotted values, censored values given without sign; for 48 pIC50 / 72 pIC50: trypomastigote assay; for 48 pIC50: 48 h; for 72 pIC50: 72 h
How it was run: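 Tulahuen trypomastigotes from infected LLC-MK2 culture supernatants (days 5–8) plated at 5 × 10^4 per well in DMEM/2% FBS with compound at 5 μM single-shot final or in dose response. Viability by CellTiter-Glo ATP luminescence after 10 min at room temperature, normalised to no-cell (100%) and DMSO (0%) controls.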

SMILES	ME_24h ([1]; figure 5)	ME_48h ([1]; figure 5)	ME_72h ([1]; figure 5)	MCC50 ([1]; RoK curve descriptor) [µM]	MCCE ([1]; RoK curve descriptor) [µM]	t50%_Cmax [1] [h]	tlag_Cmax [1] [h]	t50pct_Cmax ([1]; figure 5)	tlag_Cmax ([1]; figure 5)	t50%_MCC50 ([1]; at MCC50) [h]	tlag_MCC50 ([1]; at MCC50) [h]	t50pct_MCC50 ([1]; at MCC50, figure 5)	tlag_MCC50 ([1]; at MCC50, figure 5)	MCCE ([1]; figure 5)	ME_24h (%) [1] [%]	ME_48h (%) [1] [%]	ME_72h (%) [1] [%]	ME 24h (maximum effect at 24 hours, intracellular amastigotes) [1] [%]	Trypomastigotes pIC50 48 hours [2]	Trypomastigotes pIC50 72 hours [2]	also measured
Cc1c(C#N)c([N+](=O)[O-])nn1Cc1cccc(Cl)c1Cl [TCMDC-143152]	56.9761	166.798	160.217	1.9	0.6	24.0	4.0	24	4	48.0	4.0	48	4	0.6173	57.0	166.8	160.2	56.9761	6.1	6.1	AM/CELL NORM ([1]; Time 4, sheet figure 4 A): 5.197; AM/CELL NORM ([1]; Time 24, sheet figure 4 A): 56.9761; AM/CELL NORM ([1]; Time 48, sheet figure 4 A): 166.798; AM/CELL NORM ([1]; Time 72, sheet figure 4 A): 160.217; MCC50 ([1]; figure 5, in µM): 1.852; 72 pIC50 (trypomastigotes, raw data of Fig 1D) [2]: 6.1; 48 pIC50 ([2]; figure 1A): 6.1; 72 pIC50 ([2]; figure 1A): 6.1; 72 pIC50 ([2]; figure 1B): 6.1
c1ccc(CCNCc2cncc3nc(-c4cnccn4)n(C4CCCCC4)c23)cc1 [TCMDC-143346]	-174.15	-60.952	17.2662		0.2		24.0	72	24			72	72	0.2058	-174.2	-61.0	17.3	-174.15	< 4.3	< 4.3	AM/CELL NORM ([1]; Time 4, sheet figure 4 A): -7.276; AM/CELL NORM ([1]; Time 24, sheet figure 4 A): -174.15; AM/CELL NORM ([1]; Time 48, sheet figure 4 A): -60.952; AM/CELL NORM ([1]; Time 72, sheet figure 4 A): 6.4629; MCC50 ([1]; figure 5): 50 µM; 72 pIC50 (trypomastigotes, raw data of Fig 1D) [2]: < 4.3; 48 pIC50 ([2]; figure 1A): < 4.3; 72 pIC50 ([2]; figure 1A): < 4.3; 72 pIC50 ([2]; figure 1B): < 4.3
CC(=O)Nc1ccc(-c2noc(CC3CCCN(Cc4cccc(F)c4C)C3)n2)cc1 (stereo not drawn) [TCMDC-143362]	28.3063	60.2253	68.1396	5.6	1.9	48.0	4.0	48	4	72.0	24.0	72	24	1.852	28.3	60.2	68.1	73.518	5.2	5.3	AM/CELL NORM ([1]; Time 4, figure 4 A): -3.298; AM/CELL NORM ([1]; Time 24, figure 4 A): 28.3063; AM/CELL NORM ([1]; Time 48, figure 4 A): 60.2253; AM/CELL NORM ([1]; Time 72, figure 4 A): 68.1396; MCC50 ([1]; figure 5, in µM): 5.556
CNc1cc(C)nc(C2CN(C(=O)c3n[nH]c4ccccc34)CCO2)c1 (stereo not drawn) [TCMDC-143494]	32.4456	71.1038	67.5793	50.0	1.9	48.0	4.0	48	4	48.0	4.0	48	4	1.852	32.5	71.1	67.6	32.4456	5.9	5.5	AM/CELL NORM ([1]; Time 4, sheet figure 4 A): 7.648; AM/CELL NORM ([1]; Time 24, sheet figure 4 A): 27.7451; AM/CELL NORM ([1]; Time 48, sheet figure 4 A): 71.1038; AM/CELL NORM ([1]; Time 72, sheet figure 4 A): 67.5793; MCC50 ([1]; figure 5): 50 µM
CC(C)Oc1cccc(N2CCC(C(=O)N3CCCN(C(C)C)CC3)CC2)c1.Cl [TCMDC-143432]	-31.9347	48.3783	79.9841	1.9	1.2	60.0	24.0	60	24	72.0	24.0	72	24	1.235	-31.9	48.4	80.0	-15.8852	< 4.3	< 4.3	AM/CELL NORM ([1]; Time 4, sheet figure 4 A): -8.446; AM/CELL NORM ([1]; Time 24, sheet figure 4 A): -20.4309; AM/CELL NORM ([1]; Time 48, sheet figure 4 A): 59.253; AM/CELL NORM ([1]; Time 72, sheet figure 4 A): 56.8532; MCC50 ([1]; figure 5, in µM): 1.852; 72 pIC50 (trypomastigotes, raw data of Fig 1D) [2]: < 4.3; 48 pIC50 ([2]; figure 1A): < 4.3; 72 pIC50 ([2]; figure 1A): < 4.3; 72 pIC50 ([2]; figure 1B): < 4.3
Fc1ccc(OC2CC(NCc3cccc4cn[nH]c34)C2)cc1C(F)(F)F (stereo not drawn) [TCMDC-143455]	25.577	44.8387	61.893	5.6	0.2	72.0	24.0	72	24	72.0	24.0	72	24	0.2058	25.6	44.8	61.9	107.523	5	5	AM/CELL NORM ([1]; Time 4, figure 4 A): 30.3216; AM/CELL NORM ([1]; Time 24, figure 4 A): 25.577; AM/CELL NORM ([1]; Time 48, figure 4 A): 44.8387; AM/CELL NORM ([1]; Time 72, figure 4 A): 61.893; MCC50 ([1]; figure 5, in µM): 5.556; 72 pIC50 (trypomastigotes, raw data of Fig 1D) [2]: 5; 48 pIC50 ([2]; figure 1A): 5; 72 pIC50 ([2]; figure 1A): 5; 72 pIC50 ([2]; figure 1B): 5
